Laboratory results from the NIST ThermoML archive (doi:10.1016/j.jct.2007.11.002).
± gives the expanded uncertainty stated by the source.

Test: xn = mol fraction of the nth substance listed
Details: 101 kPa, Liquid; for viscosity: Capillary tube (Ostwald / Ubbelohde) method

CN1CCOCC1 [N-methylmorpholine] + c1ccccc1
Details | mass density, 298.15 K [kg/m3] | mass density, 303.15 K [kg/m3] | mass density, 313.15 K [kg/m3] | mass density, 323.15 K [kg/m3] | viscosity, 298.15 K [mPa·s] | viscosity, 303.15 K [mPa·s] | viscosity, 313.15 K [mPa·s] | viscosity, 323.15 K [mPa·s]
x2 = 0.0554 | 912.69 ± 1 | 907.91 ± 1 | 898.27 ± 1 | 879.87 ± 1 | 0.847 ± 0.011 | 0.836 ± 0.011 | 0.811 ± 0.011 | 0.789 ± 0.011
x2 = 0.1167 | 911.11 ± 0.93 | 906.07 ± 0.93 | 896.38 ± 0.95 | 878.41 ± 0.97 | 0.814 ± 0.011 | 0.805 ± 0.01 | 0.781 ± 0.01 | 0.761 ± 0.01
x2 = 0.1798 | 909.39 ± 0.86 | 904.33 ± 0.87 | 894.47 ± 0.88 | 876.92 ± 0.91 | 0.783 ± 0.01 | 0.772 ± 0.01 | 0.746 ± 0.01 | 0.731 ± 0.01
x2 = 0.2477 | 907.18 ± 0.8 | 902.35 ± 0.81 | 892.51 ± 0.82 | 875.44 ± 0.85 | 0.753 ± 0.009 | 0.741 ± 0.009 | 0.713 ± 0.009 | 0.695 ± 0.009
x2 = 0.2855 | 906.2 ± 0.77 | 901.15 ± 0.78 | 891.26 ± 0.79 | 874.46 ± 0.82 | 0.737 ± 0.009 | 0.725 ± 0.009 | 0.695 ± 0.009 | 0.676 ± 0.009
x2 = 0.3422 | 904.33 ± 0.72 | 899.41 ± 0.73 | 889.48 ± 0.75 | 873.1 ± 0.78 | 0.715 ± 0.009 | 0.7 ± 0.009 | 0.668 ± 0.009 | 0.647 ± 0.008
x2 = 0.3762 | 903.31 ± 0.7 | 898.32 ± 0.71 | 888.33 ± 0.72 | 872.2 ± 0.75 | 0.704 ± 0.009 | 0.688 ± 0.009 | 0.654 ± 0.008 | 0.632 ± 0.008
x2 = 0.4244 | 901.72 ± 0.66 | 896.71 ± 0.67 | 886.67 ± 0.69 | 870.91 ± 0.72 | 0.687 ± 0.008 | 0.671 ± 0.008 | 0.636 ± 0.008 | 0.613 ± 0.008
x2 = 0.479 | 899.69 ± 0.63 | 894.8 ± 0.64 | 884.72 ± 0.66 | 869.39 ± 0.69 | 0.672 ± 0.008 | 0.656 ± 0.008 | 0.617 ± 0.008 | 0.592 ± 0.008
x2 = 0.5466 | 897 ± 0.59 | 892.15 ± 0.6 | 881.97 ± 0.62 | 867.18 ± 0.65 | 0.655 ± 0.008 | 0.637 ± 0.008 | 0.598 ± 0.008 | 0.568 ± 0.008
x2 = 0.5911 | 895.2 ± 0.57 | 890.3 ± 0.58 | 880.1 ± 0.6 | 865.69 ± 0.63 | 0.646 ± 0.008 | 0.628 ± 0.008 | 0.587 ± 0.008 | 0.556 ± 0.007
x2 = 0.6201 | 893.8 ± 0.56 | 889.05 ± 0.57 | 878.76 ± 0.59 | 864.58 ± 0.62 | 0.641 ± 0.008 | 0.622 ± 0.008 | 0.579 ± 0.007 | 0.548 ± 0.007
x2 = 0.6822 | 891 ± 0.54 | 886.21 ± 0.55 | 875.84 ± 0.57 | 862.22 ± 0.6 | 0.631 ± 0.008 | 0.61 ± 0.007 | 0.565 ± 0.007 | 0.531 ± 0.007
x2 = 0.7094 | 889.5 ± 0.53 | 884.9 ± 0.54 | 874.61 ± 0.56 | 861.22 ± 0.59 | 0.628 ± 0.007 | 0.606 ± 0.007 | 0.561 ± 0.007 | 0.525 ± 0.007
x2 = 0.7655 | 886.8 ± 0.51 | 882.04 ± 0.52 | 871.56 ± 0.55 | 858.69 ± 0.57 | 0.625 ± 0.007 | 0.6 ± 0.007 | 0.551 ± 0.007 | 0.509 ± 0.007
x2 = 0.7901 | 885.2 ± 0.51 | 880.63 ± 0.52 | 870.14 ± 0.54 | 857.49 ± 0.57 | 0.621 ± 0.007 | 0.597 ± 0.007 | 0.548 ± 0.007 | 0.503 ± 0.007
x2 = 0.8439 | 882.2 ± 0.5 | 877.64 ± 0.51 | 867.09 ± 0.53 | 854.96 ± 0.56 | 0.618 ± 0.007 | 0.589 ± 0.007 | 0.535 ± 0.007 | 0.486 ± 0.007
x2 = 0.8933 | 879.6 ± 0.49 | 874.81 ± 0.5 | 864.21 ± 0.53 | 852.55 ± 0.55 | 0.613 ± 0.007 | 0.583 ± 0.007 | 0.521 ± 0.007 | 0.468 ± 0.007
x2 = 0.9278 | 877.5 ± 0.49 | 872.82 ± 0.5 | 862.18 ± 0.53 | 850.86 ± 0.55 | 0.61 ± 0.007 | 0.578 ± 0.007 | 0.512 ± 0.007 | 0.458 ± 0.007
x2 = 0.9641 | 875.4 ± 0.49 | 870.63 ± 0.5 | 859.95 ± 0.53 | 848.96 ± 0.55 | 0.606 ± 0.007 | 0.571 ± 0.007 | 0.503 ± 0.007 | 0.448 ± 0.007
